In PubChem BioAssay (NCI):
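Step 1: Grow cells in 96-well plates. Step 2: Expose to compound for 48 hours at 5 concentrations. Step 3: Interpolate endpoints linearly; if unreached, use highest concentration. GI50 marks 50% less growth. TGI: total growth inhibition.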

Tests used:
Assay in all cases: DTP human tumour cell line panel, 48 h
SK-OV-3 ovarian = test system: SK-OV-3 ovarian
OVCAR-5 ovarian = test system: OVCAR-5 ovarian
OVCAR-4 ovarian = test system: OVCAR-4 ovarian
CCRF-CEM leukemia = test system: CCRF-CEM leukemia
UACC-62 melanoma = test system: UACC-62 melanoma
SK-MEL-5 melanoma = test system: SK-MEL-5 melanoma
TK-10 renal = test system: TK-10 renal
MDA-MB-231 breast = test system: MDA-MB-231 breast
NCI/ADR-RES ovarian = test system: NCI/ADR-RES ovarian
SR leukemia = test system: SR leukemia

SMILES	GI50 (SK-OV-3 ovarian)	TGI (SK-OV-3 ovarian)	GI50 (OVCAR-5 ovarian)	TGI (OVCAR-5 ovarian)	GI50 (OVCAR-4 ovarian)	TGI (OVCAR-4 ovarian)	GI50 (CCRF-CEM leukemia)	TGI (CCRF-CEM leukemia)	GI50 (UACC-62 melanoma)	TGI (UACC-62 melanoma)	GI50 (SK-MEL-5 melanoma)	TGI (SK-MEL-5 melanoma)	GI50 (TK-10 renal)	TGI (TK-10 renal)	GI50 (MDA-MB-231 breast)	TGI (MDA-MB-231 breast)	GI50 (NCI/ADR-RES ovarian)	TGI (NCI/ADR-RES ovarian)	GI50 (SR leukemia)	TGI (SR leukemia)
Fc1ccc2[nH]cc(-c3nonc3-c3c[nH]c4ccc(Br)cc34)c2c1	4.34 µM	22.4 µM	2.15 µM	5.8 µM	3.45 µM	18.5 µM	3.07 µM	14.9 µM	1.72 µM	4.38 µM	1.88 µM	4.25 µM	3.04 µM	6.63 µM	1.3 µM	2.88 µM	2.87 µM	10.1 µM		
Nc1ccc(C2=NN(c3ccccc3)C(c3ccc(Cl)cc3)C2)cc1 (stereo unspecified)	9.09 µM	29.9 µM	10.6 µM	24.8 µM	4.84 µM	45.5 µM	2.3 µM	6.17 µM	3.12 µM	12.9 µM	2.71 µM	8.48 µM	2.13 µM	6.16 µM	2.38 µM	6.98 µM	3.64 µM	19.4 µM	1.71 µM	4.27 µM
Cc1sc2nc(-c3ccncc3)c(/C=N/N=C(N)N)n2c1C	62.2 µM	> 100 µM	74.6 µM	> 100 µM	67.3 µM	> 100 µM	63 µM	> 100 µM	17.3 µM	50.3 µM	38.3 µM	> 100 µM	> 100 µM	> 100 µM	25.3 µM	61.5 µM	> 100 µM	> 100 µM		
CCOC(=O)N1CCN(c2nc(Nc3cc(C)[nH]n3)c3ccccc3n2)CC1	2.62 µM	34.3 µM	3.25 µM	> 100 µM	4.04 µM	> 100 µM	10.1 µM	56.2 µM			7.94 µM	21.4 µM	0.909 µM	35.1 µM	4.97 µM	81.6 µM	4.25 µM	37 µM	0.446 µM	20.2 µM
CCOc1ccc2nc(SCc3nc4n(n3)S(=O)(=O)c3ccccc3N4C)sc2c1	> 100 µM	> 100 µM	> 100 µM	> 100 µM	> 100 µM	> 100 µM	64.2 µM	> 100 µM	> 100 µM	> 100 µM	> 100 µM	> 100 µM			73.1 µM	> 100 µM	> 100 µM	> 100 µM	51.5 µM	> 100 µM
Cc1ccc(-c2csc(/N=C3\C(=O)Nc4ccccc43)n2)cc1	1.61 µM	3.55 µM	1.93 µM	4.57 µM	1.75 µM	6.48 µM	1.78 µM	5.4 µM	1.37 µM	2.83 µM	1.63 µM	3.02 µM	2.52 µM	5.15 µM	1.52 µM	3.48 µM	20.7 µM	> 100 µM		
COc1ccc2c(c1)C(=O)c1c-2n(CCCN=[N+]=[N-])c(=O)c2cc(OC)c(OC)cc12	41.6 µM	> 100 µM	> 100 µM	> 100 µM	> 100 µM	> 100 µM	4.01 µM	16.4 µM	21 µM	> 100 µM	> 100 µM	> 100 µM	19.5 µM	72.1 µM	> 100 µM	> 100 µM	80.1 µM	> 100 µM		
COc1ccc(C(=O)/C=C/c2ccc(C)cc2)cc1OC	14 µM	27.4 µM	16.1 µM	29.6 µM	12.2 µM	24.7 µM	25.1 µM	61.2 µM			12.5 µM	25 µM	16.4 µM	37.7 µM	14.3 µM	33.1 µM	11.7 µM	28.3 µM	2.4 µM	6.83 µM
COc1cccc(-c2nc3sccn3c2-c2ccnc(NCCCNS(=O)(=O)c3cccc(F)c3)c2)c1	4.86 µM	> 100 µM	4.41 µM	> 100 µM			2.26 µM	> 100 µM	1.62 µM	5 µM	1.56 µM	3.63 µM	3.8 µM	31.9 µM	3.62 µM	> 100 µM	2.09 µM	6.41 µM	2.59 µM	> 100 µM
C=C1C(O)C2C(=C(CCc3ccccc3)C13CC3)C(=O)C(C)(CO)C2O (stereo unspecified)			> 100 µM	> 100 µM	> 100 µM	> 100 µM	> 100 µM	> 100 µM	> 100 µM	> 100 µM	> 100 µM	> 100 µM	57.4 µM	> 100 µM	> 100 µM	> 100 µM	> 100 µM	> 100 µM	38.6 µM	> 100 µM
Cc1ccc(S(=O)(=O)NC(=O)C2C(=O)CC3(CCCCC3)CC2=O)cc1		> 100 µM		> 100 µM		> 100 µM		69.8 µM		83.8 µM		67 µM		62.1 µM		> 100 µM		37.9 µM		
COc1ccc(-c2cc(=O)c3ccc(C)nc3[nH]2)cc1		> 100 µM		> 100 µM		> 100 µM		> 100 µM		> 100 µM	48 µM	> 100 µM		> 100 µM		> 100 µM		> 100 µM		
Nc1ccccc1C(=O)CC1OC(=O)c2ccccc21 (stereo unspecified)		> 100 µM		> 100 µM		> 100 µM				> 100 µM				> 100 µM		> 100 µM		> 100 µM		> 100 µM
Clc1nc(Cl)c2ncn(Cc3cccc(Cn4cnc5c(Cl)nc(Cl)nc54)c3)c2n1			15 µM	28.8 µM	3.69 µM	13.2 µM	2.25 µM	5.32 µM	2.41 µM	5.91 µM	2.47 µM	5.87 µM	2.46 µM	7.31 µM	2.66 µM	7 µM	12.5 µM	35 µM	2.94 µM	8.41 µM
Cc1cc(=O)oc2cc(OC(=O)N(C)C)c(Cl)cc12				> 100 µM		> 100 µM		> 100 µM		83.2 µM		> 100 µM		> 100 µM		> 100 µM		> 100 µM		> 100 µM
